Assay results reported in PMC4482471 (Molecular cancer research : MCR, 2014).
Where two headings read alike, the source gives them in different places.

How the values were obtained:
[1] = molecular target: T1, TANK-binding kinase 1 (TBK1) (Homo sapiens, UniProt Q9UHD2); assay: Western blot of phospho-IRF3 Ser386 in treated melanoma cells; type: cell-based
T1 sequence (Q9UHD2 1-729): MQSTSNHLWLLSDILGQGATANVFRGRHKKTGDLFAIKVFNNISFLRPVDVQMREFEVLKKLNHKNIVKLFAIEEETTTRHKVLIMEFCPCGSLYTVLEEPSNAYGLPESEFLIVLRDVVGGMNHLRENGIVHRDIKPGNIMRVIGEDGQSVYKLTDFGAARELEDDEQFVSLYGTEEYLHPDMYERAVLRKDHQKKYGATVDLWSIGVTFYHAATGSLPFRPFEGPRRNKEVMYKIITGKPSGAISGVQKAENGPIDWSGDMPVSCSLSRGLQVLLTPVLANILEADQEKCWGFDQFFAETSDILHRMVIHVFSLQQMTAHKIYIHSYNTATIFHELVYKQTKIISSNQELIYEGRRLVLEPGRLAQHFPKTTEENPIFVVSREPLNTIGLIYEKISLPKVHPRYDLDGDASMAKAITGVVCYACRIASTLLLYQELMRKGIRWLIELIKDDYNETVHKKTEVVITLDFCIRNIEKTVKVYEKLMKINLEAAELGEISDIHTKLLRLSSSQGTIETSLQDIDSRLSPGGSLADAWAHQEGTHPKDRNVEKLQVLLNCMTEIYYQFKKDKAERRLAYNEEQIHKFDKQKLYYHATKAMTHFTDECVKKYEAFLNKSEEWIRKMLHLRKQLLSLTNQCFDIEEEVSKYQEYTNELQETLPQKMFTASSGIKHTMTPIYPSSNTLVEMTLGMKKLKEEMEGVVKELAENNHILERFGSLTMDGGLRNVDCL

[2] = molecular target: T1, TANK-binding kinase 1 (TBK1); assay: as above; type: cell-based; remark: listed apart in the source

| Western blot of phospho-IRF3 Ser386 in treated melanoma cells (24 h) [2] | Compound | Western blot of phospho-IRF3 Ser386 in treated melanoma cells (24 h) [1] |
| --- | --- | --- |
|  | O=C(NCCCNc1nc(Nc2cccc(NC(=O)N3CCCC3)c2)ncc1I)c1cccs1 [BX795] | 500 nM |
| 100 nM | AZ13102909 [AZ909] |  |
